Test results taken from patent US7541364B2, “Pyridomorphinans, pyridazinomorphinans and use thereof” (priority 2003, dated 2009).
Structures can show the parent of a compound that is named as a salt.

Key:
opioid δ receptor = biological target: T1, opioid δ receptor (Rattus norvegicus, UniProt P33533); assay: Opioid δ receptor binding, [3H]DADLE displacement in rat brain membranes; conditions: for Ki: displacement of [3H]DADLE (1.3-2.0 nM), rat brain membranes, 100 nM DAMGO to block μ sites, read-out: Ki (nM) ± SEM δ
T1 construct: Rat membranes are prepared each day using a partially thawed frozen rat brain; from tissue; host or cells: rat brain membranes
T1 sequence (P33533 whole entry): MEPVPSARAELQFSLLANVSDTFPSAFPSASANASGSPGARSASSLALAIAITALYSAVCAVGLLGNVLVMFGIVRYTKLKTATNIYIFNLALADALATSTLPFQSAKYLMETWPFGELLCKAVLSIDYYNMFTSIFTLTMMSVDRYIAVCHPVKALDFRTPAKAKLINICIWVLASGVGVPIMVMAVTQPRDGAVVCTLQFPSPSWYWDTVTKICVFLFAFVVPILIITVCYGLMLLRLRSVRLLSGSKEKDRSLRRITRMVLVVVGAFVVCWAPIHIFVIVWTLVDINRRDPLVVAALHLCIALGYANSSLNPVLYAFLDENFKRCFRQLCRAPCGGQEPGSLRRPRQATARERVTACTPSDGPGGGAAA

μ receptor [1] = biological target: T2, μ receptor (Cavia porcellus, UniProt A0ACM8Q262); assay: biochemical; parameters: dose or concentration left out as unconfirmed; conditions: read-out: agonist activity Emax % μ
T2 sequence (A0ACM8Q262 1-400): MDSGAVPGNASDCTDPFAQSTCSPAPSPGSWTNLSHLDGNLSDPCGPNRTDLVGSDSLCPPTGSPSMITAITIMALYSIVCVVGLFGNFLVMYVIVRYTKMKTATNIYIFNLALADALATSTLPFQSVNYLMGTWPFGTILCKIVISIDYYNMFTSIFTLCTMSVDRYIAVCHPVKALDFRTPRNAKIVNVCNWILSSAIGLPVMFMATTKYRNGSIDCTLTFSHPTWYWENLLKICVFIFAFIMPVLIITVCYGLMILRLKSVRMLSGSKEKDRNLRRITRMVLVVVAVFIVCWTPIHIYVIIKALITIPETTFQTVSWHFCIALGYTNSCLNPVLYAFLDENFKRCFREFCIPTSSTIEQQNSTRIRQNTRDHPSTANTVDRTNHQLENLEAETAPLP

μ receptor [2] = biological target: T2, μ receptor; conditions: for Ki: read-out: antagonist activity apparent Ki (nM ± SD) μ, inhibition of DAMGO (10 μM) stimulated [35S]GTP-γ-S binding; for EC50: read-out: agonist activity EC50 (nM ± SD) μ, δ and κ sites blocked with TIPP (1 μM) and nor-BNI (6 nM)
mice = assay: 55° C. tail-flick antinociception test in mice; conditions: for A50: at time of peak drug effect; for naloxone sensitivity: naloxone 10 mg/kg ip, -10 min, yes = greater than 80% reduction in the antinociceptive effect
Procedure: Analgesic Testing and Assessment of Tolerance Development. The analgesic activity of selected ligands is tested in mice using the 55° C. tail-flick test as previously described. (See Wells et al., supra.) The test compounds are administered by the intracerbroventricular (icv) route. […] To determine whether the analgesic activity of the tested compounds is mediated through opioid receptors, the blockade of antinociceptive activity by pretreatment with naloxone is carried out. The analgesic activity was considered as naloxone sensitive if greater than 80% reduction in the antinociceptive response is observed.
Antinociceptive Studies. Male ICR mice (Harlan) are used for all evaluations. Mice are housed in a temperature and humidity controlled vivarium on a 12:12 h light:dark cycle with unlimited access to food and water prior to the formal procedures. […] The dihydrochloride salt of 7h is dissolved in water and injected in a volume of 5 μL. All other compounds are dissolved in 100% DMSO and injected in a volume of 5 μL. Antinociceptive assays are performed at various times after injection.
Percent antinociception is calculated using the formula: % MPE (maximal possible effect)=100×(test−control)/(cutoff−control) where control is the predrug observation, test is the postdrug observation, and cutoff is the maximal length of stimulus allowed (10 s for 55° C. tail-flick). Antinociceptive A50 values and 95% confidence intervals are determined using linear regression software (FlashCalc). Opioid activity of the test compounds are assessed by pretreating animals with naloxone (10 mg/kg ip, −10 min) followed by an icv injection of an approximate A90 dose of test compound. […] Antinociception is assessed in the 55° C. tail-flick test at 10, 20 and 30 min. A positive response to a fixed dose of naloxone is indicated when greater than 80% reduction in the antinociceptive effect of the agonist is observed.

opioid κ receptor = opioid κ receptor (Cavia porcellus, UniProt P41144); conditions: for selectivity ratio κ/δ: ratio of binding Ki values; for Ki: read-out: Ki (nM) ± SEM κ, displacement of [3H]U69,593 (1.2-[…]), guinea pig brain membranes
opioid κ receptor, sequence (P41144 whole entry): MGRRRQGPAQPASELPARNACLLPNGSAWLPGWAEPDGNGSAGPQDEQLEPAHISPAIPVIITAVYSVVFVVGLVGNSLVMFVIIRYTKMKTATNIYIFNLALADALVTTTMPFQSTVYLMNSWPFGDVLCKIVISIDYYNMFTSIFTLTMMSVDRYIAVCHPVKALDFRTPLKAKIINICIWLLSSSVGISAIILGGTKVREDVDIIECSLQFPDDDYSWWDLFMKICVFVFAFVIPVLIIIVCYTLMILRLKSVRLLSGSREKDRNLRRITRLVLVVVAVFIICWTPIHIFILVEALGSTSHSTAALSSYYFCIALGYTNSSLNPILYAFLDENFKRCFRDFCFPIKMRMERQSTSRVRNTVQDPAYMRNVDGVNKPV

opioid μ receptor = opioid μ receptor (Rattus norvegicus, UniProt P33535); conditions: for selectivity ratio μ/δ: ratio of binding Ki values; for Ki: read-out: Ki (nM) ± SEM μ, displacement of [3H]DAMGO (1.4-3.0 nM), rat brain membranes
opioid μ receptor, sequence (P33535 whole entry): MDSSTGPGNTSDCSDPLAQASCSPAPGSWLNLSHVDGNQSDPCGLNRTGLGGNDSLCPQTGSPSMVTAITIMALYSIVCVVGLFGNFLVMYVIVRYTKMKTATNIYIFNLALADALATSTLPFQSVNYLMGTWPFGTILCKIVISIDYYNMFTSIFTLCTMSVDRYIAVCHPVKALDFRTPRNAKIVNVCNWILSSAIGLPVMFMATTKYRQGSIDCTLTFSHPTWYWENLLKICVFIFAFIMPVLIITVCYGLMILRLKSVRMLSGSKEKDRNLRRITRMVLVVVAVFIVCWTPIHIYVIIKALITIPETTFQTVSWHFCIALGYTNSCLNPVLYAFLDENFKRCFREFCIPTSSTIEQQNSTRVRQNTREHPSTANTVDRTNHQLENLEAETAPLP

δ receptor [3] = biological target: T3, δ receptor (Cavia porcellus, UniProt A0A286XTF2); assay: biochemical; parameters: Emax: dose or concentration left out as unconfirmed
T3 sequence (A0A286XTF2 1-366): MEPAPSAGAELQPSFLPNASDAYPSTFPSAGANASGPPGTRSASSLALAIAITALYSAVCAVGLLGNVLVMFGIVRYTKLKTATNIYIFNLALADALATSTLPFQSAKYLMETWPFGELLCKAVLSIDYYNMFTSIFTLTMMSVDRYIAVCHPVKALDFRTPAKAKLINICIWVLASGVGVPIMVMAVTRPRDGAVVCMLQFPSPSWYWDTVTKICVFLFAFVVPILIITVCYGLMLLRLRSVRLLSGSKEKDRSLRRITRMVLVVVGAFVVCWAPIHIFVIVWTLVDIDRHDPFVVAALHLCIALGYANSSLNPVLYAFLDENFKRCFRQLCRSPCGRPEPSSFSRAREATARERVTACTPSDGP

[4] = biological target: T4, δ receptor (mouse vas deferens) (Mus musculus, UniProt P32300); assay: Mouse vas deferens (MVD) smooth muscle bioassay; conditions: for IC50: inhibition of electrically stimulated contractions, read-out: agonist activity MVD (δ) IC50
T4 sequence (P32300 whole entry): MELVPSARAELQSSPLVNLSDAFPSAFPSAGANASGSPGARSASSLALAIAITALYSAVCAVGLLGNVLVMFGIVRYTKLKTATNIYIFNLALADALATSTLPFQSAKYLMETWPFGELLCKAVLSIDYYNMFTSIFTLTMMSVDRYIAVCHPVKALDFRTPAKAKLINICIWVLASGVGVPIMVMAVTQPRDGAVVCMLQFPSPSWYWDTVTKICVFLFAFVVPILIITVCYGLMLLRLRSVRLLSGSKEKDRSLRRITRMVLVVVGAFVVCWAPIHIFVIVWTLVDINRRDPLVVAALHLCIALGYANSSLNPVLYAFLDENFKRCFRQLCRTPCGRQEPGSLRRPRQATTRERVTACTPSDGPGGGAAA
Procedure: (§1) Bioassays in Smooth Muscle Preparations. The functional activity profiles of selected ligands are also determined in the mouse vas deferens (MVD) and guinea pig ileum (GPI) smooth muscle preparations as described previously.
(§2) The agonist activity is determined by the ability of the compound to inhibit electrically stimulated contractions of the GPI and MVD. The GPI is primarily a μ receptor preparation, even though the ileum does also contain κ receptors. In the MVD, the opioid effects are predominantly mediated through δ receptors, but μ and κ receptors also exist in this tissue.
(§3) Tissues came from male ICR mice weighing 25-40 g and male Hartley guinea pigs weighing 250-500 g. The tissues are tied to gold chain with suture silk, suspended in 20 mL baths containing 37° C. oxygenated (95% O2, 5% CO2) Krebs bicarbonate solution (magnesium free for the MVD), and allowed to equilibrate for 15 min. The tissues are then stretched to optimal length previously determined to be 1 g tension (0.5 g for MVD) and allowed to equilibrate for 15 min. The tissues are stimulated transmurally between platinum wire electrodes at 0.1 Hz, 0.4 ms pulses (2-ms pulses for MVD), and supramaximal voltage. […] Tissues not producing typical results are not used. Experimental compounds were added to the baths in 14-60 μL volumes. Succeeding doses of agonist are added cumulatively to the bath at 3 min intervals to produce a concentration-response curve. The tissues are then washed extensively with fresh buffer until the original contraction height is reestablished. […] The tissues are then washed with fresh buffer for 30 min, and the agonist dose-response curve was repeated. Rightward shifts in the dose-response curves are calculated by dividing the antagonized dose-response curve IC50 value by the unantagonized IC50 value. IC50 values represent the mean of two to four tissues. IC50 estimates and their associated standard errors are determined by using a computerized nonlinear least-squares method. (MINSQ Least Squares Parameter Estimation, version 3.05; MicroMath Inc., 1999.)

κ receptor = κ receptor (Cavia porcellus, UniProt P41144); conditions: read-out: antagonist activity apparent Ki (nM ± SD) κ
κ receptor, sequence (P41144 whole entry): as the sequence (P41144 whole entry) above

[5] = biological target: T4, δ receptor (mouse vas deferens); assay: Mouse vas deferens (MVD) smooth muscle bioassay; parameters: from tissue; host or cells: mouse vas deferens (male ICR mice)
Procedure: as §1, §2, §3

δ receptor [6] = biological target: T3, δ receptor; conditions: δ receptors, partial inhibition with increasing concentrations

Structure (SMILES)	melting point	Ki (opioid δ receptor) [nM]	Emax (μ receptor [1]) [%]	Ki (μ receptor [2]) [nM]	naloxone sensitivity (mice)	selectivity ratio κ/δ (opioid κ receptor)	Ki (opioid κ receptor) [nM]	selectivity ratio μ/δ (opioid μ receptor)	Ki (opioid μ receptor) [nM]	Ki (δ receptor [3]) [nM]	further results
CN1CC[C@]23c4c5ccc(O)c4O[C@H]2c2ncc(-c4ccc(Cl)cc4)cc2C[C@H]3[C@H]1C5 (as salt: salt) [7h, 5′-(4-Chlorophenyl)-6,7-didehydro-4,5α-epoxy-3-hydroxy-17-methylpyrido[2′,3′:6,7]morphinan]	276 to 278 °C (dec.)										
C=CCN1CC[C@]23c4c5ccc(O)c4O[C@H]2c2ncc(-c4ccc(Cl)cc4)cc2C[C@@]3(O)[C@H]1C5 [7a, 17-(Allyl)-6,7-didehydro-3,14-dihydroxy-4,5α-epoxy-5′-(4-chlorophenyl)pyrido[2′,3′:6,7]morphinan]	168 to 172 °C	8.2 ± 0.07									reduction in affinity at the δ site compared to 2c (opioid δ receptor; N-allyl vs N-CPM): 4 fold
CN1CC[C@]23c4c5ccc(O)c4O[C@H]2c2ncccc2C[C@@]3(O)[C@H]1C5 [7b, 6,7-Didehydro-3,14-dihydroxy-4,5α-epoxy-17-methylpyrido[2′,3′:6,7]morphinan]	> 230 °C	18 ± 1.4	40 ± 2	> 1000	yes	15	264 ± 18	0.4	7.9 ± 0.23	> 1000	A50 (mice; icv, mouse tail-flick): 67.1 nmol
CN1CC[C@]23c4c5ccc(O)c4O[C@H]2c2ncccc2C[C@H]3[C@H]1C5 [7f, 6,7-Didehydro-4,5α-epoxy-3-hydroxy-17-methylpyrido[2′,3′:6,7]morphinan]	164 to 166 °C	8 ± 0.8	44 ± 1	> 1000	no	8	66 ± 2	2.0	13 ± 0.5	595 ± 48	EC50 (μ receptor [2]): 502 ± 76 nM; % nociception @ 100 nmol (mice; icv, mouse tail-flick): 75% @100 nmol; factor that prevented determining the A50 value (mice; icv, mouse tail-flick): insensitivity to naloxone; IC50 [4]: 152 ± 25.5 nM; blockade of agonist activity in the MVD by antagonists ([4]; naloxone and ICI-174,864): blocked by the nonselective antagonist naloxone but not by the δ selective antagonist ICI-174,864
CN1CC[C@]23c4c5ccc(O)c4O[C@H]2c2ncc(-c4ccccc4)cc2C[C@H]3[C@H]1C5 [7g, 6,7-Didehydro-4,5α-epoxy-3-hydroxy-17-methyl-5′-phenylpyrido[2′,3′:6,7]morphinan]		1.9 ± 0.09	60	> 1000	yes	43	81 ± 5	13	24 ± 2	> 1000	% nociception @ 100 nmol (mice; icv, mouse tail-flick): 48% @ 100 nmol; toxicity preventing A50 determination (mice; icv, mice): toxicity; IC50 [4]: 48.4 ± 8.65 nM
CN1CC[C@]23c4c5ccc(O)c4O[C@H]2c2ncc(-c4ccc(Br)cc4)cc2C[C@H]3[C@H]1C5 [7i, 5′-(4-Bromophenyl)-6,7-didehydro-4,5α-epoxy-3-hydroxy-17-methylpyrido[2′,3′:6,7]morphinan]	186 to 188 °C	5 ± 0.6	59 ± 3	> 1000	yes	18	91 ± 6	40	200 ± 11		A50 (mice; icv, mouse tail-flick): 47.2 nmol; Ki (κ receptor): 265 ± 29 nM; Kb [5]: 20 ± 6.59 nM; maximum percentage inhibition of SNC-80 stimulated [35S]GTP-γ-S binding (δ receptor [6]): 69±3%; IC50 (δ receptor [3]): 55 nM
Oc1ccc2c3c1O[C@H]1c4ncc(-c5ccc(Cl)cc5)cc4C[C@H]4[C@@H](C2)N(CC2CC2)CC[C@]314 [7l, 5′-(4-Chlorophenyl)-17-(cyclopropylmethyl)-6,7-didehydro-4,5α-epoxy-3-hydroxypyrido[2′,3′:6,7]morphinan]	178 to 180 °C	2.6 ± 0.12				2.3	6 ± 0.3	24	62 ± 3	1.56 ± 0.14	% nociception @ 300 nmol (mice; icv, 300 nmol, mouse tail-flick): 18% @ 300 nmol; factor that prevented determining the A50 value (mice; icv, mouse tail-flick): lack of efficacy; Ki (κ receptor): 11.2 ± 0.62 nM; Kb [5]: 6 ± 1.33 nM
COc1ccc2c3c1O[C@H]1c4ncccc4C[C@@]4(O)[C@@H](C2)N(C)CC[C@]314 [7m, 6,7-Didehydro-4,5α-epoxy-14-hydroxy-3-methoxy-17-methylpyrido[2′,3′:6,7]morphinan]	210 to 212 °C	143 ± 9									
COc1ccc2c3c1O[C@H]1c4ncc(-c5ccc(Cl)cc5)cc4C[C@@]4(O)[C@@H](C2)N(C)CC[C@]314 [7o, 5′-(4-chlorophenyl)-6,7-didehydro-4,5α-epoxy-14-hydroxy-3-methoxy-17-methyl-pyrido[2′,3′:6,7]morphinan]	112 to 114 °C	21 ± 2									
COc1ccc2c3c1O[C@H]1c4ncc(-c5ccc(Cl)cc5)cc4C[C@H]4[C@@H](C2)N(CC2CC2)CC[C@]314 [7q, 5′-(4-chlorophenyl)-17-(cyclopropylmethyl)-6,7-didehydro-4,5α-epoxy-3-methoxypyrido[2′,3′:6,7]morphinan]	196 to 198 °C	41 ± 3									
C[C@@H](NC(=O)[C@@H](N)Cc1ccc(O)cc1)C(=O)NCC(=O)N(C)[C@@H](Cc1ccccc1)C(=O)NCCO [DAMGO, reference compound]			100								EC50 (μ receptor [2]): 414 nM
CN1CC[C@]23c4c5ccc(O)c4O[C@H]2[C@@H](O)C=C[C@H]3[C@H]1C5 [Morphine, reference compound]					yes						A50 (mice; icv, mouse tail-flick): 4.2 nmol
C=CCN1C[C@H](C)N([C@H](c2ccc(C(=O)N(CC)CC)cc2)c2cccc(OC)c2)C[C@H]1C [SNC80, reference compound]											EC50 (δ receptor [3]): 758 ± 131 nM; Emax (δ receptor [3]; read-out: agonist activity Emax % δ): 100%
